# Article PMC10065276, “Enhanced therapeutic window for antimicrobial Pept-ins by investigating their structure-activity relationship” (PLOS ONE, 2023)
# Positions of bridges follow the written chain, without caps; N, C: chain ends. Residues, ends and D or L forms follow the SMILES beside them.
# System: E. coli BL21
# Settings: BL21, 17 h
# Procedure: The peptide MIC was determined via the broth microdilution assay according to the EUCAST guideline, using 96-well polystyrene flat-bottom microtiter plates (BD Biosciences). Briefly, a single colony was inoculated in 5 mL Mueller-Hinton (MH) medium and incubated, while shaking at 37°C, to the end-exponential growth phase. The bacterial culture was subsequently diluted to 0.005 McFarland (McF) (~1.5x10^6 CFU/mL) with fresh MH medium. Two-fold serial peptide-dilutions were prepared in 50 μL MH medium resulting in a concentration range of 0.75 to 100 μg/mL (at least three wells for each concentration). Afterwards, 50 μL of the freshly diluted bacterial suspension (0.005 McF) was mixed with different peptide concentrations in the 96-well plate, performed in triplicates. The plate was ultimately incubated at 37°C overnight without shaking for 17 hours. The MIC was determined as the lowest peptide concentration without visible bacterial growth.
SMILES,BL21 MIC [µg/mL],"BL21 MIC, SS bond [µg/mL]","BL21 MIC, no SS bond [µg/mL]"
CC(C)C[C@H](NC(=O)CNC(=O)[C@H](CCCNC(=N)N)NC(=O)[C@H](Cc1ccccc1)NC(=O)[C@H](C)NC(=O)[C@H](CCCNC(=N)N)NC(=O)[C@@H](NC(=O)[C@H](CC(C)C)NC(=O)[C@H](C)NC(=O)[C@H](CC(C)C)NC(=O)CNC(=O)[C@H](CC(C)C)NC(=O)CNC(=O)[C@@H](N)CCCNC(=N)N)C(C)C)C(=O)NCC(=O)N[C@@H](CC(C)C)C(=O)N[C@@H](C)C(=O)N[C@@H](CC(C)C)C(=O)N[C@H](C(=O)N[C@@H](C)C(=O)N[C@@H](CCCNC(=N)N)C(=O)O)C(C)C [Peptide P2_4R_F] (H-RGLGLALVRAFRGLGLALVAR-OH),12.50,–,–
"CC(C)C[C@H](NC(=O)CNC(=O)[C@H](CCCNC(=N)N)NC(=O)[C@@H]1CCCN1C(=O)[C@H](CCCNC(=N)N)NC(=O)[C@H](C)NC(=O)[C@@H](NC(=O)[C@H](CC(C)C)NC(=O)[C@H](C)NC(=O)[C@H](CC(C)C)NC(=O)CNC(=O)[C@H](CC(C)C)NC(=O)CNC(=O)[C@@H](N)CCCNC(=N)N)C(C)C)C(=O)NCC(=O)N[C@@H](CC(C)C)C(=O)N[C@@H](C)C(=O)N[C@@H](CC(C)C)C(=O)N[C@H](C(=O)N[C@@H](CCCNC(=N)N)C(=O)N[C@@H](C)C(=O)O)C(C)C [R9A, R21A] (H-RGLGLALVARPRGLGLALVRA-OH)",>100.00,–,–
CC(C)C[C@H](NC(=O)CNC(=O)[C@H](CCCNC(=N)N)NC(=O)[C@@H]1CCCN1C(=O)[C@H](CCCNC(=N)N)NC(=O)[C@H](CCCNC(=N)N)NC(=O)[C@@H](NC(=O)[C@H](CC(C)C)NC(=O)[C@H](C)NC(=O)[C@H](CC(C)C)NC(=O)CNC(=O)[C@H](CC(C)C)NC(=O)[C@H](C)NC(=O)[C@@H](N)CCCNC(=N)N)C(C)C)C(=O)NCC(=O)N[C@@H](CC(C)C)C(=O)N[C@@H](C)C(=O)N[C@@H](CC(C)C)C(=O)N[C@H](C(=O)N[C@@H](CCCNC(=N)N)C(=O)N[C@@H](CCCNC(=N)N)C(=O)O)C(C)C [Peptide P2_G2A] (H-RALGLALVRRPRGLGLALVRR-OH),6.25,–,–
CC[C@H](C)[C@H](NC(=O)CNC(=O)[C@H](CC(C)C)NC(=O)[C@H](CCCNC(=N)N)NC(=O)[C@@H]1CCCN1C(=O)[C@H](CCCNC(=N)N)NC(=O)[C@H](CCCNC(=N)N)NC(=O)[C@H](CC(C)C)NC(=O)[C@H](C)NC(=O)[C@@H](NC(=O)[C@H](C)NC(=O)[C@@H](NC(=O)CNC(=O)[C@H](CC(C)C)NC(=O)[C@H](C)N)[C@@H](C)CC)C(C)C)C(=O)N[C@@H](C)C(=O)N[C@H](C(=O)N[C@@H](C)C(=O)N[C@@H](CC(C)C)C(=O)N[C@@H](CCCNC(=N)N)C(=O)N[C@@H](CCCNC(=N)N)C(=O)O)C(C)C [Peptide P33-R1A] (H-ALGIAVALRRPRLGIAVALRR-OH),6.25,–,–
CC(C)C[C@H](NC(=O)CNC(=O)[C@@H](N)CCCNC(=N)N)C(=O)NCC(=O)N[C@@H](CC(C)C)C(=O)N[C@@H](C)C(=O)N[C@@H](CC(C)C)C(=O)N[C@H](C(=O)N[C@@H](CCCNC(=N)N)C(=O)N[C@@H](CCCNC(=N)N)C(=O)N1CCC[C@H]1C(=O)N[C@@H](CCCNC(=N)N)C(=O)NCC(=O)N[C@@H](C)C(=O)NCC(=O)N[C@@H](CC(C)C)C(=O)N[C@@H](C)C(=O)N[C@@H](CC(C)C)C(=O)N[C@H](C(=O)N[C@@H](CCCNC(=N)N)C(=O)N[C@@H](CCCNC(=N)N)C(=O)O)C(C)C)C(C)C [Peptide P2_L14A] (H-RGLGLALVRRPRGAGLALVRR-OH),25.00,–,–
CC[C@H](C)[C@H](NC(=O)CNC(=O)[C@H](CC(C)C)NC(=O)[C@H](CCCNC(=N)N)NC(=O)[C@@H]1CCCN1C(=O)[C@H](CCCNC(=N)N)NC(=O)[C@H](CCCNC(=N)N)NC(=O)[C@H](CC(C)C)NC(=O)[C@H](C)NC(=O)[C@@H](NC(=O)[C@H](C)NC(=O)[C@@H](NC(=O)CNC(=O)[C@H](C)NC(=O)[C@@H](N)CCCNC(=N)N)[C@@H](C)CC)C(C)C)C(=O)N[C@@H](C)C(=O)N[C@H](C(=O)N[C@@H](C)C(=O)N[C@@H](CC(C)C)C(=O)N[C@@H](CCCNC(=N)N)C(=O)N[C@@H](CCCNC(=N)N)C(=O)O)C(C)C [Peptide P33-L2A] (H-RAGIAVALRRPRLGIAVALRR-OH),12.50,–,–
CC(C)C[C@H](NC(=O)CNC(=O)[C@H](CCCNC(=N)N)NC(=O)[C@@H]1CCCN1C(=O)[C@H](CCCNC(=N)N)NC(=O)[C@H](CCCNC(=N)N)NC(=O)[C@@H]1CCCN1C(=O)[C@H](CC(C)C)NC(=O)[C@H](C)NC(=O)[C@H](CC(C)C)NC(=O)CNC(=O)[C@H](CC(C)C)NC(=O)CNC(=O)[C@@H](N)CCCNC(=N)N)C(=O)NCC(=O)N[C@@H](CC(C)C)C(=O)N[C@@H](C)C(=O)N[C@@H](CC(C)C)C(=O)N1CCC[C@H]1C(=O)N[C@@H](CCCNC(=N)N)C(=O)N[C@@H](CCCNC(=N)N)C(=O)O [P2_zero_tango_4] (H-RGLGLALPRRPRGLGLALPRR-OH),>100.00,–,–
CC(C)C[C@H](NC(=O)CNC(=O)[C@H](CCCNC(=N)N)NC(=O)[C@@H]1CCCN1C(=O)[C@H](CCCNC(=N)N)NC(=O)[C@H](CCCNC(=N)N)NC(=O)[C@@H](NC(=O)[C@H](CC(C)C)NC(=O)[C@H](CC(C)C)NC(=O)[C@H](CC(C)C)NC(=O)CNC(=O)[C@H](CC(C)C)NC(=O)CNC(=O)[C@@H](N)CCCNC(=N)N)C(C)C)C(=O)NCC(=O)N[C@@H](CC(C)C)C(=O)N[C@@H](CC(C)C)C(=O)N[C@@H](CC(C)C)C(=O)N[C@H](C(=O)N[C@@H](CCCNC(=N)N)C(=O)N[C@@H](CCCNC(=N)N)C(=O)O)C(C)C [A5L (P2)] (H-RGLGLLLVRRPRGLGLLLVRR-OH),12.50,–,–
CC(C)C[C@H](NC(=O)CNC(=O)[C@H](CCCNC(=N)N)NC(=O)[C@@H]1CCCN1C(=O)[C@H](CCCNC(=N)N)NC(=O)[C@H](CCCNC(=N)N)NC(=O)[C@@H](NC(=O)[C@H](CC(C)C)NC(=O)[C@H](C)NC(=O)[C@H](CC(C)C)NC(=O)CNC(=O)[C@H](CC(C)C)NC(=O)CNC(=O)[C@@H](N)CCCNC(=N)N)C(C)C)C(=O)NCC(=O)N[C@@H](CC(C)C)C(=O)N[C@@H](C)C(=O)N[C@@H](CC(C)C)C(=O)N[C@@H](C)C(=O)N[C@@H](CCCNC(=N)N)C(=O)N[C@@H](CCCNC(=N)N)C(=O)O [Peptide P2_V19A] (H-RGLGLALVRRPRGLGLALARR-OH),25.00,–,–
CSCC[C@H](NC(=O)[C@H](CC(C)C)NC(=O)CNC(=O)[C@H](CC(C)C)NC(=O)CNC(=O)[C@H](CCCNC(=N)N)NC(=O)[C@@H]1CCCN1C(=O)[C@H](CCCNC(=N)N)NC(=O)[C@H](CCCNC(=N)N)NC(=O)[C@@H](NC(=O)[C@H](CC(C)C)NC(=O)[C@H](C)NC(=O)[C@H](CC(C)C)NC(=O)CNC(=O)[C@H](CC(C)C)NC(=O)CNC(=O)[C@@H](N)CCCNC(=N)N)C(C)C)C(=O)N[C@@H](CC(C)C)C(=O)N[C@H](C(=O)N[C@@H](CCCNC(=N)N)C(=O)N[C@@H](CCCNC(=N)N)C(=O)O)C(C)C [Peptide P2_A5M] (H-RGLGLALVRRPRGLGLMLVRR-OH),6.25,–,–
CC(C)C[C@H](NC(=O)CNC(=O)[C@H](CCCNC(=N)N)NC(=O)[C@H](Cc1c[nH]c2ccccc12)NC(=O)[C@H](C)NC(=O)[C@H](CCCNC(=N)N)NC(=O)[C@@H](NC(=O)[C@H](CC(C)C)NC(=O)[C@H](C)NC(=O)[C@H](CC(C)C)NC(=O)CNC(=O)[C@H](CC(C)C)NC(=O)CNC(=O)[C@@H](N)CCCNC(=N)N)C(C)C)C(=O)NCC(=O)N[C@@H](CC(C)C)C(=O)N[C@@H](C)C(=O)N[C@@H](CC(C)C)C(=O)N[C@H](C(=O)N[C@@H](C)C(=O)N[C@@H](CCCNC(=N)N)C(=O)O)C(C)C [Peptide P2_4R_W] (H-RGLGLALVRAWRGLGLALVAR-OH),12.50,–,–
CC(C)C[C@H](NC(=O)CNC(=O)[C@H](CCCNC(=N)N)NC(=O)[C@@H]1CSSC[C@H](NC(=O)[C@@H](NC(=O)[C@H](CC(C)C)NC(=O)[C@H](C)NC(=O)[C@H](CC(C)C)NC(=O)CNC(=O)[C@H](CC(C)C)NC(=O)CNC(=O)[C@@H](N)CCCNC(=N)N)C(C)C)C(=O)N[C@@H](CCCNC(=N)N)C(=O)N[C@@H](CCCNC(=N)N)C(=O)N[C@@H]([C@@H](C)O)C(=O)NCC(=O)N1)C(=O)NCC(=O)N[C@@H](CC(C)C)C(=O)N[C@@H](C)C(=O)N[C@@H](CC(C)C)C(=O)N[C@H](C(=O)N[C@@H](CCCNC(=N)N)C(=O)N[C@@H](CCCNC(=N)N)C(=O)O)C(C)C [Peptide P2_H12_TG] (H-RGLGLALVCRRTGCRGLGLALVRR-OH; disulfide 9-14),–,6.50,6.25
CC(C)C[C@H](NC(=O)CNC(=O)[C@H](CCCNC(=N)N)NC(=O)[C@@H]1CCCN1C(=O)[C@H](CCCNC(=N)N)NC(=O)[C@H](CCCNC(=N)N)NC(=O)[C@@H](NC(=O)[C@H](CC(C)C)NC(=O)[C@H](Cc1ccc(O)cc1)NC(=O)[C@H](CC(C)C)NC(=O)CNC(=O)[C@H](CC(C)C)NC(=O)CNC(=O)[C@@H](N)CCCNC(=N)N)C(C)C)C(=O)NCC(=O)N[C@@H](CC(C)C)C(=O)N[C@@H](Cc1ccc(O)cc1)C(=O)N[C@@H](CC(C)C)C(=O)N[C@H](C(=O)N[C@@H](CCCNC(=N)N)C(=O)N[C@@H](CCCNC(=N)N)C(=O)O)C(C)C [A5Y (P2)] (H-RGLGLYLVRRPRGLGLYLVRR-OH),6.25,–,–
CC(C)C[C@H](NC(=O)CNC(=O)[C@H](CCCNC(=N)N)NC(=O)[C@@H]1CCCN1C(=O)[C@H](CCCNC(=N)N)NC(=O)[C@H](CCCNC(=N)N)NC(=O)[C@@H](NC(=O)[C@H](CC(C)C)NC(=O)[C@H](C)NC(=O)[C@H](CC(C)C)NC(=O)CNC(=O)[C@H](CC(C)C)NC(=O)CNC(=O)[C@@H](N)CCCNC(=N)N)C(C)C)C(=O)NCC(=O)N[C@@H](CC(C)C)C(=O)N[C@@H](CC(C)C)C(=O)N[C@@H](CC(C)C)C(=O)N[C@H](C(=O)N[C@@H](CCCNC(=N)N)C(=O)N[C@@H](CCCNC(=N)N)C(=O)O)C(C)C [Peptide P2_A5L] (H-RGLGLALVRRPRGLGLLLVRR-OH),6.25,–,–
